Activity calls are given as the source filed them.
Key:
[1] = molecular target: Intestinal-type alkaline phosphatase (Homo sapiens, UniProt P09923); assay: activation of human intestinal alkaline phosphatase – biochemical, dose response (AID 488873); format: functional
[2] = molecular target: Intestinal-type alkaline phosphatase (Mus musculus, UniProt P24822); assay: PubChem AID 488785; format: functional
[3] = molecular target: T1, Alkaline phosphatase, tissue-nonspecific isozyme (Homo sapiens, UniProt P05186); assay: TNAP enzyme inhibition by screening hits, dose response, selectivity assay for mouse IAP inhibitor project, biochemical, human TNAP, uHTS hits (AID 488906); format: functional
T1 sequence (P05186 whole entry): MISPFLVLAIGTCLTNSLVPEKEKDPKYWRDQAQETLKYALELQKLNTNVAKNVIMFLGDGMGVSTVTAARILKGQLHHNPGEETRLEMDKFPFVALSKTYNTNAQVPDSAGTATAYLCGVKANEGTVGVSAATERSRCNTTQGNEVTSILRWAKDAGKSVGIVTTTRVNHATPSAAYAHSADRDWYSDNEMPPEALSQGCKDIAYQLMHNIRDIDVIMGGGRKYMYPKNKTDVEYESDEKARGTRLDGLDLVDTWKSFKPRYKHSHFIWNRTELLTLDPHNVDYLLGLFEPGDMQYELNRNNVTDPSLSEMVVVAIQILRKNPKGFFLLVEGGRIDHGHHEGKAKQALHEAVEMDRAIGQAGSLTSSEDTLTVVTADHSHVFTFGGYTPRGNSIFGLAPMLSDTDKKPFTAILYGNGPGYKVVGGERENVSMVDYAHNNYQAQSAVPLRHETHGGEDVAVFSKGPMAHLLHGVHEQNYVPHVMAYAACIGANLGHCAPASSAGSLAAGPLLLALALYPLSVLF

[4] = molecular target: T2, Short transient receptor potential channel 4 (Mus musculus, UniProt Q9QUQ5); assay: TRPC4 positive allosteric modulators, dose response, cell-based, HEK293 TRPC4/mu-opioid, Fluo-4 calcium, EC20 DAMGO (AID 434941); format: functional
T2 sequence (Q9QUQ5 whole entry): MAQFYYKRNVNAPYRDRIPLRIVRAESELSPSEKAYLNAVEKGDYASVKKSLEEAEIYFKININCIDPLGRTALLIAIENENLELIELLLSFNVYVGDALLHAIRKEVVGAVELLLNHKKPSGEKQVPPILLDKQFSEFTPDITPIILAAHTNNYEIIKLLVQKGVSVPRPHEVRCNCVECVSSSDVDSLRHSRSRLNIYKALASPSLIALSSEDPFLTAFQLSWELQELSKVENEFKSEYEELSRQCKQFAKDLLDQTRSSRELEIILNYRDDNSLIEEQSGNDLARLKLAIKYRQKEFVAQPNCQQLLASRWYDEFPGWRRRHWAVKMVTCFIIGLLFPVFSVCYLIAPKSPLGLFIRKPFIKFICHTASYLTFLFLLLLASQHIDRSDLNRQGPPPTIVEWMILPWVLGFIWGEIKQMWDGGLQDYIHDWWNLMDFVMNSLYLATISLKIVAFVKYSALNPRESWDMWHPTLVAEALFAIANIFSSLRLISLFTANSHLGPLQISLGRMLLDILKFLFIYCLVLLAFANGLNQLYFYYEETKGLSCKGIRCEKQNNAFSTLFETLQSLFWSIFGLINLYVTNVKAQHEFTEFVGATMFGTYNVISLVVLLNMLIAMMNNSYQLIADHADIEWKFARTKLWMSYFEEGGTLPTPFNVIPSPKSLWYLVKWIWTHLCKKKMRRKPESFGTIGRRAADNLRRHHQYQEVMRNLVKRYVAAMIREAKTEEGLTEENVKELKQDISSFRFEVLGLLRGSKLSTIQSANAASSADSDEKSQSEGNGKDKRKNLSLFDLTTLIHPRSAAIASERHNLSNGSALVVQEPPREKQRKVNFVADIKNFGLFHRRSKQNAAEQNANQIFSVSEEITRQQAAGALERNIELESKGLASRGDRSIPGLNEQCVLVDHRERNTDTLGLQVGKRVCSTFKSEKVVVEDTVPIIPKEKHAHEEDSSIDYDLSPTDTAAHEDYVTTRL

[5] = molecular target: Eukaryotic translation initiation factor 4H (Homo sapiens, UniProt Q15056); assay: eIF4H inhibition in translation initiation, SAR follow-up (AID 435011); format: functional
[6] = molecular target: T3, Polyadenylate-binding protein 1 (Homo sapiens, UniProt P11940); assay: PABP inhibition in translation initiation, SAR follow-up (AID 435018); format: functional
T3 sequence (P11940 whole entry, the tested form may be a part): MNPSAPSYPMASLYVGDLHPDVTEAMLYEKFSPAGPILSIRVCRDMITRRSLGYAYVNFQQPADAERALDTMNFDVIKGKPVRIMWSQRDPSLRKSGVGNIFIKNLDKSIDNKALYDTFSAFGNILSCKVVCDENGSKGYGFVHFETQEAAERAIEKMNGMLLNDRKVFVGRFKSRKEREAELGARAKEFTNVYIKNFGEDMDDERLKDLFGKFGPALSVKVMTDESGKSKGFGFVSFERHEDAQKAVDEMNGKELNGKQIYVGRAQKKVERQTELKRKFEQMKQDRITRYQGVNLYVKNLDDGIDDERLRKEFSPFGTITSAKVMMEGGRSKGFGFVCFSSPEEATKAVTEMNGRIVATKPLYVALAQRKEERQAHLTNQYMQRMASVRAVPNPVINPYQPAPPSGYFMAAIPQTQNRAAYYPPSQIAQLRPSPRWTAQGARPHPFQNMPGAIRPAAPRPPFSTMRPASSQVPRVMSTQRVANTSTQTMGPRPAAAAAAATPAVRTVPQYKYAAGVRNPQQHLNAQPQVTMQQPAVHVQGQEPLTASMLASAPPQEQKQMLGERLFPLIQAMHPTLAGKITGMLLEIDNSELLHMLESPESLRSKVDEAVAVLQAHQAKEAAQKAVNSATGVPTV

[7] = molecular target: T4, Carboxy-terminal domain RNA polymerase II polypeptide A small phosphatase 1 (Homo sapiens, UniProt Q9GZU7); assay: inhibitors of CTDSP1, concentration-response testing, biochemical assay, absorbance-based, actives from ultra-high-throughput screening (AID 540297); format: functional
T4 sequence (Q9GZU7 whole entry): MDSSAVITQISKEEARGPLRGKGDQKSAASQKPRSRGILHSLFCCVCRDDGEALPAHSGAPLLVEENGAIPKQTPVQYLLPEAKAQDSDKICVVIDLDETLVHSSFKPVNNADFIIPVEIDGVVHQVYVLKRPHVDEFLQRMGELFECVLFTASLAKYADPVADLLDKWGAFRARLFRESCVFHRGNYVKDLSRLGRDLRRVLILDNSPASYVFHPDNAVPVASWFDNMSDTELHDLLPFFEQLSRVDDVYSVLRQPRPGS

[8] = molecular target: T5, Long-chain-fatty-acid--AMP ligase FadD28 (Mycobacterium tuberculosis, UniProt P9WQ59); assay: Fluorescence polarization aasay to screen for inhibitors that compete for the binding of FadD28 to a bisubstrate Measured in Biochemical System Using Plate Reader - 2147-01_Inhibitor_Dose_CherryPick_Activity.; format: functional, Mycobacterium tuberculosis H37Rv
T5 sequence (P9WQ59 whole entry): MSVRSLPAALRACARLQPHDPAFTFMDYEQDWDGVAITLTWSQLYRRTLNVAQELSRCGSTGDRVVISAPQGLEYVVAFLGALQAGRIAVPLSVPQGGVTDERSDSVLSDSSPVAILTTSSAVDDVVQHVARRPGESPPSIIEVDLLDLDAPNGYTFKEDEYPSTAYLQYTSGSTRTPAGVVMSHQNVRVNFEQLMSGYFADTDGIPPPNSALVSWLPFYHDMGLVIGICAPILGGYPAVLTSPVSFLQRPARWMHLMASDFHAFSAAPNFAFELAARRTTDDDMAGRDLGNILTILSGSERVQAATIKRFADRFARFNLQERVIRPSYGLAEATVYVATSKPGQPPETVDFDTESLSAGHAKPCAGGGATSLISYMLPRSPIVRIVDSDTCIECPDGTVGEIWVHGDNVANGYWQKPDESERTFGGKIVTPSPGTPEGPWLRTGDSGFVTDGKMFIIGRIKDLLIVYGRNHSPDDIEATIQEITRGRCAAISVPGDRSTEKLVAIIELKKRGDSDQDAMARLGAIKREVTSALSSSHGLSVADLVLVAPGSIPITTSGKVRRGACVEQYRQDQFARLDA

[9] = molecular target: T6, Mannose-6-phosphate isomerase (Homo sapiens, UniProt P34949); assay: PMI enzyme inhibitors, confirmation, biochemical, fluorescence intensity (AID 1535)
T6 sequence (P34949 whole entry): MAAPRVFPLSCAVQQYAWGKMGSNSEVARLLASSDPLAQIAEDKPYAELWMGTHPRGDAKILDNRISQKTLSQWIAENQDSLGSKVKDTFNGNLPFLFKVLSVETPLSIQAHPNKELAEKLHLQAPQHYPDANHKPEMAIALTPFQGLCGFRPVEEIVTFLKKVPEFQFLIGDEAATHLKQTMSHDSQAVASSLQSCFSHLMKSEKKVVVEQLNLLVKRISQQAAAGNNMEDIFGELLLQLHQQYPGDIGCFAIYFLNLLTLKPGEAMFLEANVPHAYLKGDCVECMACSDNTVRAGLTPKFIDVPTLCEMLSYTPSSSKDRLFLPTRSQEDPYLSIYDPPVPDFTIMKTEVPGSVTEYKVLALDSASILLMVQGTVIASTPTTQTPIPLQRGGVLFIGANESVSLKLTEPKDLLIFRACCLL

[10] = molecular target: DNA dC->dU-editing enzyme APOBEC-3A (Homo sapiens, UniProt P31941); assay: APOBEC3A DNA deaminase inhibitors, dose response, biochemical (AID 504722); format: functional
Sequence of DNA dC->dU-editing enzyme APOBEC-3A (P31941 whole entry): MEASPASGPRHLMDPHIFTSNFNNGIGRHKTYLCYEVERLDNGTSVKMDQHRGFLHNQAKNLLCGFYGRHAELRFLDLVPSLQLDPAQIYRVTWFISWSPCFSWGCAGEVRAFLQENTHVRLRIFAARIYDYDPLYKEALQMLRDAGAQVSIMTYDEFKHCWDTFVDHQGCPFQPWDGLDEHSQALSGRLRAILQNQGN

Phosphomannomutase 2 = molecular target: T7, Phosphomannomutase 2 (Homo sapiens, UniProt O15305); assay: Counter screen SAR assay for PMM2 inhibitors via a fluorescence intensity assay. [Related pubchem assays (depositor defined):AID1545, AID1574]
T7 sequence (O15305 whole entry): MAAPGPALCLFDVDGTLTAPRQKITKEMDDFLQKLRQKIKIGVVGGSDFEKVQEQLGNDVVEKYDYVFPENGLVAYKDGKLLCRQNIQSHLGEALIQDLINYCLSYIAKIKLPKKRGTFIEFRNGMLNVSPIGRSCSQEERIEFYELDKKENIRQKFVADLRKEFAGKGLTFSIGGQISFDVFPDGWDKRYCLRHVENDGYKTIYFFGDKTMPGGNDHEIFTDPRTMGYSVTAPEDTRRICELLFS

[11] = molecular target: Phosphoethanolamine/phosphocholine phosphatase (Homo sapiens, UniProt Q8TCT1); assay: SAR assay for compounds that inhibit PHOSPHO1. [Related pubchem assays (depositor defined):AID1545, AID1565, AID1574]
Sequence of Phosphoethanolamine/phosphocholine phosphatase (Q8TCT1 whole entry): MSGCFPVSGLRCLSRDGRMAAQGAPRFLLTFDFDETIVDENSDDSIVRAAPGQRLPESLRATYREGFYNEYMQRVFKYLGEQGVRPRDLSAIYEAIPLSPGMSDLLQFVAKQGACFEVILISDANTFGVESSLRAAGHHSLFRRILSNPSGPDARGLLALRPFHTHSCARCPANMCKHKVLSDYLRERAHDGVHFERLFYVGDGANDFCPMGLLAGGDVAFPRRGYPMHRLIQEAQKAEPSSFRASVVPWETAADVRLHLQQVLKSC

[12] = molecular target: DNA dC->dU-editing enzyme APOBEC-3G (Homo sapiens, UniProt Q9HC16); assay: Dose Response confirmation of small molecule APOBEC3G DNA Deaminase Inhibitors via a fluorescence-based single-stranded DNA deaminase assay. [Related pubchem assays (depositor defined):AID493012, AID493028]; format: functional
Sequence of DNA dC->dU-editing enzyme APOBEC-3G (Q9HC16 whole entry): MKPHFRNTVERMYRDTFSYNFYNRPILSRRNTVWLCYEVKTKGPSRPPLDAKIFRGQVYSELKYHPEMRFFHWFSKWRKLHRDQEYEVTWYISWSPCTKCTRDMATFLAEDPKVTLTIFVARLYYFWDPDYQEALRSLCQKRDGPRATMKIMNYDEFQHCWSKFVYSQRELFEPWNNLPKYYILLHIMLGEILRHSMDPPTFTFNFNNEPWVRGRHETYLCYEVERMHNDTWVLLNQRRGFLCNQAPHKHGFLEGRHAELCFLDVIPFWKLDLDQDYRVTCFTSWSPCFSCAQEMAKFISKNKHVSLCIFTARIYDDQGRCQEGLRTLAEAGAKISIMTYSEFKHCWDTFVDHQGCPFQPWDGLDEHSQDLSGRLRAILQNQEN

[13] = molecular target: T1, Alkaline phosphatase, tissue-nonspecific isozyme; assay: human TNAP enzyme inhibitors, SAR follow-up, biochemical, luminescent, dose response (AID 1056)
[14] = molecular target: T3, Polyadenylate-binding protein 1; assay: PABP1 MLLE–PAM2 interaction inhibitors, dose response, miRNA deadenylation inhibitor project, biochemical, fluorescence polarization, Cy5-PAM2 peptide, secondary (AID 602260); format: functional; conditions: read-out: IC50_Mean
[15] = molecular target: Mitochondrial peptide methionine sulfoxide reductase (Bos taurus, UniProt P54149); assay: Absorbance-based biochemical high throughput dose response assay for activators of Methionine sulfoxide reductase A (MsrA).; format: functional
Sequence of Mitochondrial peptide methionine sulfoxide reductase (P54149 whole entry): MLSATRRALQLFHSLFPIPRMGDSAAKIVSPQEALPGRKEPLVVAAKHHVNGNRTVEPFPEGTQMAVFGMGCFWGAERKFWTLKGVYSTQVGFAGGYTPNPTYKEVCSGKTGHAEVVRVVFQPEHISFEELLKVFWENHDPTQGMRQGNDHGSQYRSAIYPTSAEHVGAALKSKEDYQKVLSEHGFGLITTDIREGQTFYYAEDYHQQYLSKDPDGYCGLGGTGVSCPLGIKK

[16] = molecular target: T3, Polyadenylate-binding protein 1; assay: PABP1 MLLE–PAM2 binding inhibitor potency, dose response, biochemical, fluorescence polarization, FITC-PAM2 peptide (AID 602259); format: functional; conditions: read-out: IC50_Mean
[17] = Fluorescence-based cell-based high throughput dose response assay for inhibitors of the interaction of nucleotide-binding oligomerization domain containing 2 (NOD2) and the receptor-interacting serine-threonine kinase 2 (RIPK2).; format: functional; conditions: Homo sapiens
Beta Lactamase = Beta Lactamase (Pseudomonas aeruginosa, UniProt Q932Y6); assay: beta-lactamase reporter inhibitor potency, dose response, artefact control for NOD2-RIPK2 interaction inhibitor project, BLA reporter cells, FRET fluorescence (AID 651552); format: functional, cell-based
Sequence of Beta Lactamase (Q932Y6 whole entry): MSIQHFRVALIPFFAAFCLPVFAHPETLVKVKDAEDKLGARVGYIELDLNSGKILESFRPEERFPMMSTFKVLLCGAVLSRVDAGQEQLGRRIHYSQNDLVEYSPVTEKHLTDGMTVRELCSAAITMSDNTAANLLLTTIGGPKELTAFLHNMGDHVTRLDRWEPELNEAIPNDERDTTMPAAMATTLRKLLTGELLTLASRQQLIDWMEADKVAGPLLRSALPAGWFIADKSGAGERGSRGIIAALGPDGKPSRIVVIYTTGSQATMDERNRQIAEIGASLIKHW

[18] = HeLa cell cytotoxicity, dose response, cytotoxicity control for MgcRacGAP inhibitor project (AID 624300); format: functional
[19] = molecular target: T8, Rac GTPase-activating protein 1 (Homo sapiens, UniProt Q9H0H5); assay: MgcRacGAP GTPase-activating activity inhibitors, confirmation, biochemical, ADP Hunter fluorescence, primary and confirmatory (AID 624330); format: functional
T8 sequence (Q9H0H5 whole entry): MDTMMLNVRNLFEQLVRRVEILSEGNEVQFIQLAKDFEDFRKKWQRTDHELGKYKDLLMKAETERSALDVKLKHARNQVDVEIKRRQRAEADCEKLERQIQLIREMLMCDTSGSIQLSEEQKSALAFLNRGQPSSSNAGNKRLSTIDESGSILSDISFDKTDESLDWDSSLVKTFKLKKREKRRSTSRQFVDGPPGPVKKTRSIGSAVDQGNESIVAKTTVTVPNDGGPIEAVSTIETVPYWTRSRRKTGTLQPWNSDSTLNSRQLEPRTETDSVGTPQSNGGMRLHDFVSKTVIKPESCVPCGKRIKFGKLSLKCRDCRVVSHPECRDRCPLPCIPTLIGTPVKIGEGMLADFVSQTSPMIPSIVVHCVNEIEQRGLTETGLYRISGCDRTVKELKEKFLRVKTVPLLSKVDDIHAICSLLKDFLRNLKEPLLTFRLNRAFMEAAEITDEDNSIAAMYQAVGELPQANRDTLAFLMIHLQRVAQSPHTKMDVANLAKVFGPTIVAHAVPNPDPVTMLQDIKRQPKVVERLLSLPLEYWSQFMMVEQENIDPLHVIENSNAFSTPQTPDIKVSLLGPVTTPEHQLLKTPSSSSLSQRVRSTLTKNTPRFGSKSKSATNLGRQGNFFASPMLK

Sequence of Intestinal-type alkaline phosphatase (Mus musculus, UniProt P24822) (P24822 whole entry): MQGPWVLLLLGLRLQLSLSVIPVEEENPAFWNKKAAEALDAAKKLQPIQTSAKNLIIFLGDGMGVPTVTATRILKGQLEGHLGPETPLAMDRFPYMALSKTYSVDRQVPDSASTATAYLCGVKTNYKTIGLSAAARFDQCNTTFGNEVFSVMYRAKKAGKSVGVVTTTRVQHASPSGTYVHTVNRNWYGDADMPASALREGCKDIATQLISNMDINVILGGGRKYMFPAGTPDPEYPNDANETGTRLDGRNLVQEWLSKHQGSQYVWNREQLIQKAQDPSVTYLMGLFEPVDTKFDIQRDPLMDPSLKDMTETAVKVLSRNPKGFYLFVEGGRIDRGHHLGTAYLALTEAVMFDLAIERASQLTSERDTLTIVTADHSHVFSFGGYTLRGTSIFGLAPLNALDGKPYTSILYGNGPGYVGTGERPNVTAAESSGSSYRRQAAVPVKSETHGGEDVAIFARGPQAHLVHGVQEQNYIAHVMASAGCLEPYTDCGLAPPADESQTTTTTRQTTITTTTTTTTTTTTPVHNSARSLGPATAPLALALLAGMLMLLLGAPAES
Sequence of Intestinal-type alkaline phosphatase (Homo sapiens, UniProt P09923) (P09923 whole entry): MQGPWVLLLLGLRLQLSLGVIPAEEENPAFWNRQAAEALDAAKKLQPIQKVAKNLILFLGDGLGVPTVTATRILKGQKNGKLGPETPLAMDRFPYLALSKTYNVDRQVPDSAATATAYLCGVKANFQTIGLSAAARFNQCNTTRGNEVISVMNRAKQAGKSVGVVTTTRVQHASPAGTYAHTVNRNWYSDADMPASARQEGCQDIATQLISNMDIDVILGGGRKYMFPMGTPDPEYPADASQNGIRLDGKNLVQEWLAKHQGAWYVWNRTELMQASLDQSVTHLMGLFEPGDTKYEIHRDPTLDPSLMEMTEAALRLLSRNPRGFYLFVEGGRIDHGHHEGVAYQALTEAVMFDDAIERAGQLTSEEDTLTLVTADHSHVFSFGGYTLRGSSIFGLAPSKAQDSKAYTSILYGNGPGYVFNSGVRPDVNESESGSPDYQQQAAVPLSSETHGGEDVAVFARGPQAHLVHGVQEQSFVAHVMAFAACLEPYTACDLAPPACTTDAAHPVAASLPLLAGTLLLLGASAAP

For `CC1(C(=O)NNC(=O)c2ccc(=O)oc2)CC1Br` (stereo unspecified), the EC50 [1] was > 100 µM (inactive), the IC50 [2] was 11 µM (active) and the IC50 [3] was > 100 µM (inactive).
With `CC1=C(C(=O)NCc2ccccc2)C(c2cc(Br)cc(Br)c2OC(C)C)NC(=O)N1` (stereo unspecified) the EC50 [4] was 4.22 µM (active).
In the case of `Cc1cccc(NC(=O)CN2C(=O)N/C(=C\c3ccccc3OCc3ccc(C(=O)O)cc3)C2=O)c1`, the IC50 [5] is reported as 17.5 µM (active), the IC50 [6] is reported as 77.6 µM (active) and the IC50 [7] is reported as 6.07 µM (active). For the same compound, the AC50 [8] was 9.77 µM (active).
For `O=c1c2ccccc2sn1-c1ccc(F)cc1`, the IC50 [9] was 1.49 µM (active), the IC50 [10] was > 100 µM (inactive) and the IC50 (Phosphomannomutase 2) was 18.1 µM (active). For the same compound, the IC50 [11] was 4.85 µM (inactive), the IC50 [12] was 12.4 µM (active) and the IC50 [13] was > 100 µM (inactive). The IC50 [14] was > 66 µM (inactive), the EC50 [15] was 98.5 µM (inactive) and the IC50 [16] was > 66 µM (inactive). For the same compound, the IC50 [17] was 5.1 µM (active), the IC50 (Beta Lactamase) was 29.5 µM (inactive) and the CC50 [18] was 77.3 µM (active). For the same compound, the IC50 [19] was 39.3 µM (active).
